The results in this text go back to ChEMBL document CHEMBL1777801, “3-Oxo-2-piperazinyl acetamides as potent bradykinin B1 receptor antagonists for the treatment of pain and inflammation” (Bioorg Med Chem Lett, 2011).

Data set [1] can be described thus: in vivo. As to conditions: Sprague-Dawley, rat, iv, 1 mg/kg.
Data set [2] can be described thus: in vivo. To be noted: Sprague-Dawley, rat, po, 10 mg/kg.
Data set [3] is described as follows: in vivo. To be noted: Sprague-Dawley, rat, iv, 1 mg/kg. The source holds these as a separate data set.
A short description of data set [4]: Clearance in rhesus monkey at 1 mg/kg, iv. To be noted: in vivo. Details: dose 1 mg/kg, route intravenous. The class given is ADME, organism-based, Macaca mulatta.
Data set [5] can be described thus: Volume of distribution at steady state in rhesus monkey at 1 mg/kg, iv. Format: ADME, organism-based, Macaca mulatta. Further details: dose 1 mg/kg, route intravenous. To be noted: in vivo, read-out: Vdss.
Data set [6] can be described thus: Half life in cynomolgus monkey at 1 mg/kg, iv. Format: ADME, organism-based, Macaca fascicularis. Details: dose 1 mg/kg, route intravenous. To be noted: in vivo.
A short description of data set [7]: Oral bioavailability in mouse at 10 mg/kg. Format: ADME, organism-based. As to conditions: in vivo.
The nature of data set [8]: Volume of distribution at steady state in mouse at 1 mg/kg, iv. Format: ADME, organism-based. Further details: dose 1 mg/kg, route intravenous. As to conditions: in vivo, read-out: Vdss.
The nature of data set [9]: Oral bioavailability in dog at 3 mg/kg. Format: ADME, organism-based, Canis lupus familiaris. As to conditions: in vivo.
Data set [10] can be described thus: Clearance in mouse at 1 mg/kg, iv. The class given is ADME, organism-based. To be noted: in vivo. Details: dose 1 mg/kg, route intravenous.
Data set [11] in a line: Half life in dog at 1 mg/kg, iv. As to conditions: in vivo. Details: dose 1 mg/kg, route intravenous. Format: ADME, organism-based, Canis lupus familiaris.
Data set [12] in a line: Volume of distribution at steady state in dog at 1 mg/kg, iv. To be noted: in vivo, read-out: Vdss. Further details: dose 1 mg/kg, route intravenous. The class given is ADME, organism-based, Canis lupus familiaris.
The nature of data set [13]: Half life in Sprague-Dawley rat at 1 mg/kg, iv administered as bolus dose. To be noted: in vivo. The class given is ADME, organism-based. Details: dose 1 mg/kg, route intravenous.
Data set [14] is described as follows: Half life in rabbit at 1 mg/kg, iv. Details: dose 1 mg/kg, route intravenous. The class given is ADME, organism-based, Oryctolagus cuniculus. To be noted: in vivo.
Data set [15] is described as follows: Clearance in dog at 1 mg/kg, iv. The class given is ADME, organism-based, Canis lupus familiaris. Details: dose 1 mg/kg, route intravenous. To be noted: in vivo.
The nature of data set [16]: Clearance in cynomolgus monkey at 1 mg/kg, iv. Format: ADME, organism-based, Macaca fascicularis. Further details: dose 1 mg/kg, route intravenous. To be noted: in vivo.
Data set [17] is described as follows: Oral bioavailability in cynomolgus monkey at 5 mg/kg. Format: ADME, organism-based, Macaca fascicularis. To be noted: in vivo.
A short description of data set [18]: Half life in mouse at 1 mg/kg, iv. Details: dose 1 mg/kg, route intravenous. To be noted: in vivo. Format: ADME, organism-based.
Data set [19] can be described thus: Volume of distribution at steady state in rabbit at 1 mg/kg, iv. Format: ADME, organism-based, Oryctolagus cuniculus. Details: dose 1 mg/kg, route intravenous. To be noted: in vivo, read-out: Vdss.
The nature of data set [20]: Clearance in rabbit at 1 mg/kg, iv. Format: ADME, organism-based, Oryctolagus cuniculus. Further details: dose 1 mg/kg, route intravenous. As to conditions: in vivo.
Data set [21] can be described thus: Half life in rhesus monkey at 1 mg/kg, iv. The class given is ADME, organism-based, Macaca mulatta. Further details: dose 1 mg/kg, route intravenous. To be noted: in vivo.
Data set [22] can be described thus: Oral bioavailability in rhesus monkey at 5 mg/kg. The class given is ADME, organism-based, Macaca mulatta. To be noted: in vivo.
Data set [23] in a line: Volume of distribution at steady state in cynomolgus monkey at 1 mg/kg, iv. Format: ADME, organism-based, Macaca fascicularis. Details: dose 1 mg/kg, route intravenous. To be noted: in vivo, read-out: Vdss.
Data set [24] in a line: Oral bioavailability in rabbit at 5 mg/kg. The class given is ADME, organism-based, Oryctolagus cuniculus. To be noted: in vivo.

What is called bioavailability is the share of a dose that reaches the circulation, judged against a reference dose that is usually intravenous. What is called clearance is the volume of plasma or blood freed of the substance per unit of time. A word on the half-life: it is how long it takes for the measured level to halve.

For the molecule `Cc1ccc(S(=O)(=O)N2CCNC(=O)[C@H]2CC(=O)N[C@@H]2CCCc3cc(CNCC(C)(C)C)ccc32)cc1`, the Vd in the data set “in vivo [1]” was 3.4 L/kg. The bioavailability in the data set “in vivo [2]” was 16%. For the same molecule, the clearance in “in vivo [3]” was 30 mL/min/kg.
For `Cc1ccc(S(=O)(=O)N2CCNC(=O)[C@H]2CC(=O)N[C@@H]2CCCc3cc(CNC(C)(C)C)ccc32)cc1`, in that order: 8.34 L/kg, 0.3% and 56.7 mL/min/kg.
For `O=C(C[C@@H]1C(=O)NCCN1S(=O)(=O)c1ccc(Cl)cc1)N[C@@H]1CCCc2cc(CN3CCCCC3)ccc21`, in that order: 11.9 L/kg, 19% and 112 mL/min/kg.
Regarding `O=C(C[C@@H]1C(=O)NCCN1S(=O)(=O)c1ccccc1)N[C@@H]1CCCc2cc(CN3CCCCC3)ccc21`, the Vd in “in vivo [1]” was 9.9 L/kg. Further, in “in vivo [3]”, the clearance was 90 mL/min/kg.
Turning to `Cc1ccc(S(=O)(=O)N2CCNC(=O)[C@H]2CC(=O)N[C@@H]2CCCc3cc(CN4CCCCC4)ccc32)cc1`, the clearance in data set [4] is 30 mL/min/kg; in [10], 133 mL/min/kg; in [15], 63.3 mL/min/kg; in [16], 10 mL/min/kg; in “in vivo [3]” it was 123 mL/min/kg; in [20] it was 53.3 mL/min/kg. The Vd came out at 5.9 L/kg in data set [5]; 6 L/kg in data set [8]; 16.2 L/kg in data set [12]; 9.3 L/kg in “in vivo [1]”; 6.4 L/kg in [19]; 1.6 L/kg in [23]. Further, the half-life in [6] is 5.6 h; in [11] it was 4.6 h; in [13] it was 4.8 h; in data set [14] it was 2.4 h; in data set [18], 1.4 h; in data set [21], 3.2 h. Further, the bioavailability is 6% in data set [7]; 24% in data set [9]; 17% in data set [17]; 6% in the data set “in vivo [2]”; 23% in data set [22]; 5% in [24].
